Source: patent US9682087B2 (The Population Council, Inc., priority 2009, dated 2017)

Assays:
[1] = Absorption of the hormones applied onto the skin; format: in vivo
Method: These levels of these hormones applied onto the skin result in 10% absorption, and thus correspond to a daily dose of about 300 to 450 μg of the progestin and about 100 to 150 μg of the estrogen. Expressed in a different manner, it would also be possible to equate these levels of absorption of these hormones to corresponding plasma levels in the patient.

ovulation = assay: Ovulation blockade by NES at given serum level; format: in vivo; conditions: doses leading to serum levels of 250 pmol/L
[2] = test system: androgenic, estrogenic or glucocorticoid actions; conditions: at therapeutic levels; cited from earlier work
[3] = oral administration; cited from earlier work

Row | absorption rate ([1]; female, human, in vivo) | Compound | absorption rate ([1]; applied in a transdermal manner) | subjects in whom ovulation was blocked (ovulation) | androgenic, estrogenic or glucocorticoid actions [2] | activity when administered orally [3]
1 | approximately 10% | C[C@]12CC[C@@H]3c4ccc(O)cc4CC[C@H]3[C@@H]1CC[C@@H]2O [estradiol, 17β-estradiol] |  |  |  | 
2 |  | C=C1C[C@H]2[C@@H]3CCC4=CC(=O)CC[C@@H]4[C@H]3CC[C@]2(C)[C@@]1(OC(C)=O)C(C)=O [NES, 16-methylene-17α-acetoxy-19-norpregn-4-ene-3,20-dione] | approximately 10% | more than 95% | does not carry androgenic, estrogenic or glucocorticoid actions | not active
